From patent US10023570B2 (Array BioPharma, Inc., priority 2015, dated 2018) come the findings set out here.

Each structure is given as a SMILES string. Read-outs that look alike come from different tables or passages of the source.

Assay [1] concerns the target N-terminal GST tagged recombinant human RET cytoplasmic domain (aa 658-end), wild type RET kinase (Homo sapiens (Human), UniProt P07949). Nature of the assay: RET Enzyme Assay (HTRF KinEASE-TK), wild type RET. It is filed as biochemical. The note with it: wild type RET, 1 mM ATP. In general terms: In TR-FRET formats the signal depends on donor and acceptor labels being close together.

Assay [2] has as its target Kif5b-RET fusion protein in HEK-293 cells (Homo sapiens, UniProt P07949). Nature of the assay: cell-based. The note with it: HEK-293 cells expressing Kif5b-RET, read-out: KIF5B-RET pTYR1062 Cell IC50.
Assay [3] concerns the target human KDR protein in HEK-293 cells (Homo sapiens (Human), UniProt P35968). Nature of the assay: KDR Cell Assay (phospho-KDR in HEK-293 cells expressing inducible KDR). The class given is cell-based. As to conditions: pKDR Cell HEK 10% FBS IC50, HEK-293 cells expressing inducible KDR, VEGF stimulated. In short, it runs like this: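 HEK-293 cells with inducible human KDR were treated with compound for 1 h in DMEM (0.25% DMSO final), then lysed. Phospho-KDR was quantified by Meso Scale immunoassay, expressed as percent of control, and IC50 taken where a 4-parameter logistic fit crossed 50 POC.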

Sequence of N-terminal GST tagged recombinant human RET cytoplasmic domain (aa 658-end), wild type RET kinase (P07949 658-1114): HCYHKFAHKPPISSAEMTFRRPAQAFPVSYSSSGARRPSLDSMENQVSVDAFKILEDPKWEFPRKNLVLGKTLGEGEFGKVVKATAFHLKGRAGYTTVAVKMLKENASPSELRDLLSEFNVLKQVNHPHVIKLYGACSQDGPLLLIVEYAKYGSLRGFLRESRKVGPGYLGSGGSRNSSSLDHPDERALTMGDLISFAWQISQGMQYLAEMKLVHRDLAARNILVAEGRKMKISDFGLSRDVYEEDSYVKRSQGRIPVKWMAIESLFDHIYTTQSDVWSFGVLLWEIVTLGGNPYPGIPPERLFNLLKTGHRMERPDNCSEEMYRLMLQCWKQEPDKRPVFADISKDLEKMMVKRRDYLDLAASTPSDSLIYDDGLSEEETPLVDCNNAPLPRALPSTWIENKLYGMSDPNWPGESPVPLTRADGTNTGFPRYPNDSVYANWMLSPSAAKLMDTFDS
Sequence of Kif5b-RET fusion protein in HEK-293 cells (P07949 29-1114 limits assumed): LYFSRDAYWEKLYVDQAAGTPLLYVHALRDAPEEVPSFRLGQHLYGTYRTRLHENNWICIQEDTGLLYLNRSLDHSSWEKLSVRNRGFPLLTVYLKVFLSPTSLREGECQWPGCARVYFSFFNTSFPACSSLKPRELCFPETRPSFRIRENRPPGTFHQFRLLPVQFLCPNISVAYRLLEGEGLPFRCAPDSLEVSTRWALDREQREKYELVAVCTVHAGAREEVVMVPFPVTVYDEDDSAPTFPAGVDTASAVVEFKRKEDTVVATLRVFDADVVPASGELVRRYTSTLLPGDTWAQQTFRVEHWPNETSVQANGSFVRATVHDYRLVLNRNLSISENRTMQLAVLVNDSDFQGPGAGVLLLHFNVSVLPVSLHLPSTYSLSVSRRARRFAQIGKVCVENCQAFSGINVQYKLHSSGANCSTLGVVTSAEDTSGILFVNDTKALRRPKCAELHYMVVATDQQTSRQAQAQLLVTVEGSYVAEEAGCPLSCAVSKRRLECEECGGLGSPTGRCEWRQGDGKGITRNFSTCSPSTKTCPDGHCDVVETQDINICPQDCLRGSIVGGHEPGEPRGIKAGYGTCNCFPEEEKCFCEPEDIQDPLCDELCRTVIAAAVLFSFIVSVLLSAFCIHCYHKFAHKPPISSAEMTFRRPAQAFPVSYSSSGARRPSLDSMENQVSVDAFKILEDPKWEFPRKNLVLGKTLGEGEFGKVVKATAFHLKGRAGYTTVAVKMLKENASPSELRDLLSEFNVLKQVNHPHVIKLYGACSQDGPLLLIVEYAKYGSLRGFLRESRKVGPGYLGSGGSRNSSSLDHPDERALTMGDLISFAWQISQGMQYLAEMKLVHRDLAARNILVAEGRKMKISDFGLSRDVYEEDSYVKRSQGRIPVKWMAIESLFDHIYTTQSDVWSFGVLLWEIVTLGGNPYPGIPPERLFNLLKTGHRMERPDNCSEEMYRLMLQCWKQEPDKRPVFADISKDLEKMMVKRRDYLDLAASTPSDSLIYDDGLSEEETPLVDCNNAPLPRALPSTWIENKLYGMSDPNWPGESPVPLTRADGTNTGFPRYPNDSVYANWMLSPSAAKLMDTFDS
Sequence of human KDR protein in HEK-293 cells (P35968 20-1356): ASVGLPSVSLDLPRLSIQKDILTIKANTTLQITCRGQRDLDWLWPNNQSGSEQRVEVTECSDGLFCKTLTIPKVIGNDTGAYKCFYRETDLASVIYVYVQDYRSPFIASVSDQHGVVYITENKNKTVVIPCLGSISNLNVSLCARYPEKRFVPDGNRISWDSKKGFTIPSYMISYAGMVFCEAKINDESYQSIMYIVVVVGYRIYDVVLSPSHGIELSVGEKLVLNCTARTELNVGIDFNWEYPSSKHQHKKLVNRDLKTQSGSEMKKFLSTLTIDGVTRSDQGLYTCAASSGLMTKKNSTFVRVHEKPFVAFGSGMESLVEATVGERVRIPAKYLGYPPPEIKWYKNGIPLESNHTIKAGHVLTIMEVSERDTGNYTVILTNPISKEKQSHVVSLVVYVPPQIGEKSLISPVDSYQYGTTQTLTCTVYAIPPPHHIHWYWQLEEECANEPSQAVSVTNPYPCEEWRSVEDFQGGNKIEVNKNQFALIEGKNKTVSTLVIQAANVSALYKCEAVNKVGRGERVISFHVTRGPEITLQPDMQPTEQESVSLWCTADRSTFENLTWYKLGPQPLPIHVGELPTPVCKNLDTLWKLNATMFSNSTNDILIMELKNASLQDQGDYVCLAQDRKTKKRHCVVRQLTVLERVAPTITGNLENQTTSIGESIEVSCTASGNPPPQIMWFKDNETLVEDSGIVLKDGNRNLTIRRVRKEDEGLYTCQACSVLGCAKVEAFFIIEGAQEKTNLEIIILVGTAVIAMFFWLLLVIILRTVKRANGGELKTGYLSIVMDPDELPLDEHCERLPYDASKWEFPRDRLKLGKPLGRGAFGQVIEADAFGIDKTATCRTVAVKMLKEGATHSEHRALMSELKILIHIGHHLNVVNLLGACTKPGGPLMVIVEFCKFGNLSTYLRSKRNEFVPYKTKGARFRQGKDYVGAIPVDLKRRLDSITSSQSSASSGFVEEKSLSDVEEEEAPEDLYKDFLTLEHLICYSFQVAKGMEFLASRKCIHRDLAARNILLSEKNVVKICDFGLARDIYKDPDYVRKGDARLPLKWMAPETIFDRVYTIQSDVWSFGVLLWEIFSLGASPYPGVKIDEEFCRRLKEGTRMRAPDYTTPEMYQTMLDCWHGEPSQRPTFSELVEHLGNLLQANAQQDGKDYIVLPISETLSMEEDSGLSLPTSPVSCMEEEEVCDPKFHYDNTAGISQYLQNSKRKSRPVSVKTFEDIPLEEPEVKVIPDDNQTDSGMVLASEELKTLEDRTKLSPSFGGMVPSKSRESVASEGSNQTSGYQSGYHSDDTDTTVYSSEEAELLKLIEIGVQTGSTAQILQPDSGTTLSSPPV

One may read the IC50 as the concentration that gives 50% inhibition. As to `COC[C@H](O)CN1CCN(c2ccc(-c3cc(-c4cnn(C)c4)cn4ncc(C#N)c34)cn2)CC1` [Example 151, (R)-4-(6-(4-(2-hydroxy-3-methoxypropyl)piperazin-1-yl)pyridin-3-yl)-6-(1-methyl-1H-pyrazol-4-yl)pyrazolo[1,5-a]pyridine-3-carbonitrile], the IC50 in assay [1] is 44 nM; in assay [2] (phospho-RET(Tyr1062)), 70.4 nM; in assay [3] (10% FBS) it was 1430 nM.

Take `CONC(=O)C1CCN(c2ccc(-c3cc(-c4cnn(C)c4)cn4ncc(C#N)c34)cn2)CC1` [Example 564, 1-(5-(3-cyano-6-(1-methyl-1H-pyrazol-4-yl)pyrazolo[1,5-a]pyridin-4-yl)pyridin-2-yl)-N-methoxypiperidine-4-carboxamide]: the IC50 stood at 6.4 nM in assay [1], 26.2 nM in assay [2] and 740 nM in assay [3].

With `CC(C)CC(=O)N1CCN(c2ccc(-c3cc(-c4cnn(C)c4)cn4ncc(C#N)c34)cn2)CC1` [Example 75, 6-(1-methyl-1H-pyrazol-4-yl)-4-(6-(4-(3-methylbutanoyl)piperazin-1-yl)pyridin-3-yl)pyrazolo[1,5-a]pyridine-3-carbonitrile], the IC50 was found to be 6.3 nM in assay [1], 7 nM in assay [2] (phospho-RET(Tyr1062)) and 392 nM in assay [3] (10% FBS).

Take `CC(C)[C@@H](O)C(=O)N1CCN(c2ccc(-c3cc(-c4cnn(C)c4)cn4ncc(C#N)c34)cn2)CC1` [Example 85, (R)-4-(6-(4-(2-hydroxy-3-methylbutanoyl)piperazin-1-yl)pyridin-3-yl)-6-(1-methyl-1H-pyrazol-4-yl)pyrazolo[1,5-a]pyridine-3-carbonitrile]: the concentration for half-maximal inhibition (IC50) came out at 7.6 nM in assay [1], 6.5 nM in assay [2] (phospho-RET(Tyr1062)) and 771 nM in assay [3] (10% FBS).

`Cn1cc(-c2cc(-c3ccc(N4CCN(C(=O)CN(C(=O)OC(C)(C)C)C(C)(C)C)CC4)nc3)c3c(C#N)cnn3c2)cn1` [Example 18, tert-butyl tert-butyl(2-(4-(5-(3-cyano-6-(1-methyl-1H-pyrazol-4-yl)pyrazolo[1,5-a]pyridin-4-yl)pyridin-2-yl)piperazin-1-yl)-2-oxoethyl)carbamate]: the IC50 in assay [1] was found to be 30.6 nM; in assay [2] (phospho-RET(Tyr1062)) it was 19.8 nM; in assay [3] (10% FBS) it was 229 nM.

Regarding `Cn1cc(-c2cc(-c3ccc(N4CCN(C=O)CC4)nc3)c3c(C#N)cnn3c2)cn1` [Example 141, 4-(6-(4-formylpiperazin-1-yl)pyridin-3-yl)-6-(1-methyl-1H-pyrazol-4-yl)pyrazolo[1,5-a]pyridine-3-carbonitrile], the IC50 in assay [1] was found to be 7.4 nM; in assay [2] (phospho-RET(Tyr1062)), 13.2 nM; in assay [3] (10% FBS), 203 nM.

Turning to `COCC(C)(C)C(=O)N1CCN(c2ccc(-c3cc(-c4cnn(C)c4)cn4ncc(C#N)c34)cn2)CC1` [Example 352, 4-(6-(4-(3-methoxy-2,2-dimethylpropanoyl)piperazin-1-yl)pyridin-3-yl)-6-(1-methyl-1H-pyrazol-4-yl)pyrazolo[1,5-a]pyridine-3-carbonitrile], the IC50 in assay [1] worked out at 13.9 nM; in assay [2] (phospho-RET(Tyr1062)) it was 13.7 nM; in assay [3] (10% FBS) it was 2200 nM.

Turning to `COCC(C)NC(=O)C1(C)CCN(c2ccc(-c3cc(-c4cnn(C)c4)cn4ncc(C#N)c34)cn2)CC1` (stereo not drawn) [Example 252, 1-(5-(3-cyano-6-(1-methyl-1H-pyrazol-4-yl)pyrazolo[1,5-a]pyridin-4-yl)pyridin-2-yl)-N-(1-methoxypropan-2-yl)-4-methylpiperidine-4-carboxamide], the 50% inhibitory concentration (IC50) in assay [1] is 11.6 nM; in assay [2] (phospho-RET(Tyr1062)), 4.8 nM; in assay [3] (10% FBS), 656 nM.

In the case of `COCCNC(=O)N1CCN(c2ccc(-c3cc(-c4cnn(C)c4)cn4ncc(C#N)c34)cn2)CC1` [Example 135, 4-(5-(3-cyano-6-(1-methyl-1H-pyrazol-4-yl)pyrazolo[1,5-a]pyridin-4-yl)pyridin-2-yl)-N-(2-methoxyethyl)piperazine-1-carboxamide], the IC50 in assay [1] is 12.8 nM; in assay [2] (phospho-RET(Tyr1062)) it was 35.4 nM; in assay [3] (10% FBS) it was 1030 nM.
